# Data taken from ChEMBL document CHEMBL4689842, “EUbOPEN Chemogenomics Library wave 1” (2021).
# How the values were obtained:
# Format in all cases: toxicity, cell-based
# HEK-293T = experiment: Incucyte cell viability with HEK293T; details: human, 10 µM, compound concentration 10 uM
# Fibroblast = experiment: Incucyte cell viability with human fibroblast; details: 10 µM, compound concentration 10 uM
# U2OS = experiment: Incucyte cell viability with U2OS; details: human, 10 µM, compound concentration 10 uM
# [1] = 0 h, replicate number 1, timepoint 0 hours
# [2] = 6 h, replicate number 1, timepoint 6 hours
# [3] = 12 h, replicate number 1, timepoint 12 hours
# [4] = 18 h, replicate number 1, timepoint 18 hours
# [5] = 24 h, replicate number 1, timepoint 24 hours
# [6] = 6 h, replicate number 2, timepoint 6 hours
# [7] = 18 h, replicate number 2, timepoint 18 hours
# [8] = 24 h, replicate number 2, timepoint 24 hours
# [9] = 0 h, replicate number 2, timepoint 0 hours
# [10] = 12 h, replicate number 2, timepoint 12 hours
# Note: filed as whole numbers so only -1 and 0 and 1 occur.
Compound,Growth Rate (HEK-293T; [1]),Growth Rate (HEK-293T; [2]),Growth Rate (HEK-293T; [3]),Growth Rate (HEK-293T; [4]),Growth Rate (HEK-293T; [5]),Growth Rate (Fibroblast; [1]),Growth Rate (Fibroblast; [2]),Growth Rate (Fibroblast; [3]),Growth Rate (Fibroblast; [4]),Growth Rate (Fibroblast; [7]),Growth Rate (Fibroblast; [5]),Growth Rate (U2OS; [2]),Growth Rate (U2OS; [6]),Growth Rate (U2OS; [3]),Growth Rate (U2OS; [4]),Growth Rate (U2OS; [5]),Growth Rate (U2OS; [8]),Growth Rate (HEK-293T; [9]),Growth Rate (U2OS; [1]),Growth Rate (Fibroblast; [8]),other results
C[C@H](CO)Nc1nc(SCc2cccc(Cl)c2F)nc2[nH]c(=O)sc12,0,1,1,1,1,0,1,1,1,0,1,1,0,0,0,1,0,,,,Growth Rate (Fibroblast; [6]): 0
O=C(Nc1cccc2c(=O)cc(-c3nnn[nH]3)oc12)c1ccc(OCCCCc2ccccc2)cc1,1,0,0,0,0,0,0,0,0,1,0,0,,0,0,1,0,0,1,,Growth Rate (HEK-293T; [6]): 1; Growth Rate (HEK-293T; [8]): 1; Growth Rate (Fibroblast; [9]): 1; Growth Rate (Fibroblast; [10]): 1
CNc1nc(Nc2cnn([C@H]3CCN(C4COC4)C[C@@H]3F)c2Cl)ncc1C(F)(F)F,0,0,0,0,0,0,,1,1,,0,0,,1,1,1,0,,1,1,Growth Rate (U2OS; [7]): 0
FC(F)(F)c1c(N2CCC(c3ccccc3)CC2)ccn2c(CC3CC3)nnc12,,0,0,0,0,0,1,1,1,0,0,0,1,0,0,0,1,0,,,Growth Rate (U2OS; [9]): 0; Growth Rate (U2OS; [10]): 1; Growth Rate (U2OS; [7]): 1
COc1cccc(CNC(=O)c2nc3scc(CN(C)Cc4ccccc4)c3c(=O)[nH]2)c1 [T-26f],0,,,,,0,0,0,0,1,0,1,,1,1,1,,1,0,1,Growth Rate (Fibroblast; [10]): 1; Growth Rate (U2OS; [7]): 0
C[C@H]1CCCN1Cc1nc2cc(NC(=O)c3ccc4cnccc4c3)ccc2[nH]1,1,0,0,1,1,0,0,1,0,1,0,0,,1,1,1,,0,0,1,Growth Rate (HEK-293T; [8]): 0
CCc1cc2c(c(CC)n1)CCC(=O)N2Cc1ccc(-c2ccccc2-c2nnn[nH]2)cc1.Cl,0,1,1,1,1,0,0,0,0,1,1,0,,0,0,0,1,,1,,Growth Rate (HEK-293T; [6]): 0; Growth Rate (HEK-293T; [7]): 0; Growth Rate (Fibroblast; [6]): 1; Growth Rate (U2OS; [9]): 0
CCCCC[C@H](O)/C=C/[C@@H]1[C@@H](C/C=C\CCCC(=O)O)[C@@H](O)C[C@H]1O [DINOPROST],1,0,0,0,0,0,,,,1,,,0,1,1,1,,0,0,1,Growth Rate (Fibroblast; [6]): 1; Growth Rate (Fibroblast; [10]): 0
C=CCN1C[C@H](C)N([C@H](c2ccc(C(=O)N(CC)CC)cc2)c2cccc(O)c2)C[C@H]1C,1,0,0,0,0,0,0,0,0,,1,,1,,1,1,,0,0,0,Growth Rate (U2OS; [10]): 1
N#Cc1c(N)nc(SCC(N)=O)c(C#N)c1-c1ccc(OCC2CC2)cc1,0,1,1,0,0,0,,,,1,1,,0,1,1,1,0,,0,,Growth Rate (HEK-293T; [10]): 0; Growth Rate (Fibroblast; [6]): 0; Growth Rate (Fibroblast; [10]): 1
CC1(C)CNc2cc(NC(=O)c3cccnc3NCc3ccncc3)ccc21.O=P(O)(O)O.O=P(O)(O)O [MOTESANIB DIPHOSPHATE],0,,,,,0,,1,1,0,1,1,0,1,1,1,0,,0,0,Growth Rate (Fibroblast; [6]): 0; Growth Rate (Fibroblast; [10]): 0; Growth Rate (U2OS; [9]): 1
CCCc1c(-c2ccc(O)cc2)nn(-c2ccc(O)cc2)c1-c1ccc(O)cc1 [PROPYLPYRAZOLETRIOL],0,1,1,1,0,0,0,0,0,1,0,,1,1,0,1,,,1,1,Growth Rate (HEK-293T; [8]): 1; Growth Rate (Fibroblast; [10]): 1; Growth Rate (U2OS; [9]): 0; Growth Rate (U2OS; [7]): 1
Clc1cc2c(NC3CCCC3)nnc(-c3ccncc3)c2cc1Cl,1,,1,1,1,0,0,1,1,,1,0,1,1,0,0,1,0,1,,Growth Rate (U2OS; [7]): 1
Oc1ccc(-c2nc3cc(O)cc(Br)c3o2)cc1,1,0,0,1,0,0,0,,1,,1,,0,1,1,1,,0,,,Growth Rate (HEK-293T; [6]): 1; Growth Rate (HEK-293T; [10]): 1; Growth Rate (U2OS; [10]): 0
N#Cc1ccc(Nc2ccc3[nH]c(=O)[nH]c3c2)c(Cl)c1 [TP-021n],0,,,,,,0,0,0,1,0,0,,0,0,0,,1,1,,Growth Rate (HEK-293T; [8]): 1; Growth Rate (Fibroblast; [9]): 1; Growth Rate (U2OS; [9]): 0; Growth Rate (U2OS; [7]): 1
